# Patent US11135237B2, “Lipophosphonoxins of second generation, and their use” (USTAV ORGANICKE CHEMIE A BIOCHEMIE AV CR, V.V.I., priority 2016, dated 2021)
# Legend:
# S. epidermidis 8700B = assay: MIC, microdilution method, resistant strains; type: cell-based; conditions: Staphylococcus epidermidis, methicilin-resistant strain, clinical isolate
# Method: (§1) Antibacterial activity was measured using a standard microdilution method, showing the minimum inhibitory concentration (MIC) of the test sample which results in inhibition of bacterial growth. Disposable microtiter plates were used for the tests. Samples are dissolved in the brain-heart infusion broth (HiMedia Laboraties Pvt. Ltd., Czech Republic), and Mueller Hinton broth (HiMedia Laboraties, see above) at a final concentration ranging from 200 μg/ml to 1.5625 μg/ml. Plates were inoculated with a standard amount of test bacteria—inoculum density in the hole corresponds to 10^5-6 CFU/ml (colony forming units/ml). MIC values are read after 24/48 hours of incubation at 37° C. as the minimum inhibitory concentration of the test substance at which the growth of bacteria is inhibited. Minimal bactericidal concentration (MBC) is defined as the minimum concentration of the sample needed to achieve irreversible inhibition, therefore killing the bacteria after a defined time of incubation. The MBC was determined by inoculation method. 10 μl from the wells in a microplate with a defined concentration of test substance is taken with an applicator, and inoculated onto the surface of blood agar (Trios, Czech Republic) and Sabouraud agar (Trios, CR). The MBC was determined as the lowest concentration that inhibited visible growth of the bacteria used.
# S. haemolyticus 16568 = assay: MIC, microdilution method, resistant strains; type: cell-based; conditions: Staphylococcus haemolyticus, fluoroquinolone-resistant strain, clinical isolate
# Method: as §1
# E. faecium VanA 419ana = assay: MIC, microdilution method, resistant strains; type: cell-based; conditions: Enterococcus faecium, VANA419ANA; vancomycin-resistant strain, clinical isolate
# Method: as §1
# E. coli 16702 = assay: MIC, microdilution method, resistant strains; type: cell-based; conditions: Escherichia coli, resistant strain, clinical isolate
# Method: as §1
# P. aeruginosa 16575 = assay: MIC, microdilution method, resistant strains; type: cell-based; conditions: Pseudomonas aeruginosa, resistant strain, clinical isolate
# Method: as §1
# S. aureus MRSA 4591 = assay: MIC, microdilution method, resistant strains; type: cell-based; conditions: Staphylococcus aureus, methicillin-resistant strain, clinical isolate
# Method: as §1
# [1] = test system: Pseudomonas aeruginosa CCM 3955; assay: MIC, microdilution method, reference strains; type: cell-based; conditions: CCM3955, read after 24/48 hours of incubation at 37° C.
# Method: as §1, with “bacteria-inoculum” for “bacteria—inoculum”, “used. Standard reference bacterial strains (Escherichia coli CCM 3954, Pseudomonas aeruginosa CCM 3955, Enterococcus faecalis CCM 4224, Staphylococcus aureus CCM 4223) were obtained from the Czech Collection of Microorganisms (CCM) at […] University in Brno. Streptococcus agalactiae, Bacillus subtilis were obtained from the University Hospital Olomouc. The tested microorganisms were maintained in cryobanks (ITEST plus, Czech Republic) at -80° C.” for “used.”
# [2] = test system: Staphylococcus aureus CCM 4223; assay: MIC, microdilution method, reference strains; type: cell-based; conditions: CCM4223, read after 24/48 hours of incubation at 37° C.
# Method: as §1, with “bacteria-inoculum” for “bacteria—inoculum”, “used. Standard reference bacterial strains (Escherichia coli CCM 3954, Pseudomonas aeruginosa CCM 3955, Enterococcus faecalis CCM 4224, Staphylococcus aureus CCM 4223) were obtained from the Czech Collection of Microorganisms (CCM) at […] University in Brno. Streptococcus agalactiae, Bacillus subtilis were obtained from the University Hospital Olomouc. The tested microorganisms were maintained in cryobanks (ITEST plus, Czech Republic) at -80° C.” for “used.”
# [3] = test system: Enterococcus faecalis CCM 4224; assay: MIC, microdilution method, reference strains; type: cell-based; conditions: CCM4224, read after 24/48 hours of incubation at 37° C.
# Method: as §1, with “bacteria-inoculum” for “bacteria—inoculum”, “used. Standard reference bacterial strains (Escherichia coli CCM 3954, Pseudomonas aeruginosa CCM 3955, Enterococcus faecalis CCM 4224, Staphylococcus aureus CCM 4223) were obtained from the Czech Collection of Microorganisms (CCM) at […] University in Brno. Streptococcus agalactiae, Bacillus subtilis were obtained from the University Hospital Olomouc. The tested microorganisms were maintained in cryobanks (ITEST plus, Czech Republic) at -80° C.” for “used.”
# Streptococcus agalactiae = assay: MIC, microdilution method, reference strains; type: cell-based; conditions: read after 24/48 hours of incubation at 37° C.
# Method: as §1, with “bacteria-inoculum” for “bacteria—inoculum”, “used. Standard reference bacterial strains (Escherichia coli CCM 3954, Pseudomonas aeruginosa CCM 3955, Enterococcus faecalis CCM 4224, Staphylococcus aureus CCM 4223) were obtained from the Czech Collection of Microorganisms (CCM) at […] University in Brno. Streptococcus agalactiae, Bacillus subtilis were obtained from the University Hospital Olomouc. The tested microorganisms were maintained in cryobanks (ITEST plus, Czech Republic) at -80° C.” for “used.”
# Bacillus subtilis = assay: MIC, microdilution method, reference strains; type: cell-based; conditions: read after 24/48 hours of incubation at 37° C.
# Method: as §1, with “bacteria-inoculum” for “bacteria—inoculum”, “used. Standard reference bacterial strains (Escherichia coli CCM 3954, Pseudomonas aeruginosa CCM 3955, Enterococcus faecalis CCM 4224, Staphylococcus aureus CCM 4223) were obtained from the Czech Collection of Microorganisms (CCM) at […] University in Brno. Streptococcus agalactiae, Bacillus subtilis were obtained from the University Hospital Olomouc. The tested microorganisms were maintained in cryobanks (ITEST plus, Czech Republic) at -80° C.” for “used.”
# [4] = test system: Escherichia coli CCM 3954; assay: MIC, microdilution method, reference strains; type: cell-based; conditions: CCM3954, read after 24/48 hours of incubation at 37° C.
# Method: as §1, with “bacteria-inoculum” for “bacteria—inoculum”, “used. Standard reference bacterial strains (Escherichia coli CCM 3954, Pseudomonas aeruginosa CCM 3955, Enterococcus faecalis CCM 4224, Staphylococcus aureus CCM 4223) were obtained from the Czech Collection of Microorganisms (CCM) at […] University in Brno. Streptococcus agalactiae, Bacillus subtilis were obtained from the University Hospital Olomouc. The tested microorganisms were maintained in cryobanks (ITEST plus, Czech Republic) at -80° C.” for “used.”
# [5] = test system: Acinetobacter baumanii A3-08; assay: MIC, microdilution method; type: cell-based; conditions: Acinetobacter baumannii, A308; read after 24/48 hours of incubation at 37° C.
# Method: as §1
# [6] = test system: Stenotrophomonas matophilia S2-23; assay: MIC, microdilution method; type: cell-based; conditions: S223, read after 24/48 hours of incubation at 37° C.
# Method: as §1
# [7] = test system: Salmonella Enteritidis S2-25; assay: MIC, microdilution method; type: cell-based; conditions: Salmonella enterica, read after 24/48 hours of incubation at 37° C.
# Method: as §1
# [8] = test system: Burkholderia multivorans ATCC BAA-247; assay: MIC, microdilution method; type: cell-based; conditions: ATCCBAA247, read after 24/48 hours of incubation at 37° C.
# Method: as §1
# rabbits = assay: OECD404 test for skin irritation in rabbits; type: in vivo
# mice = assay: Maximum tolerated dose in mice, oral administration; type: in vivo
# Method: Maximum tolerated dose in mice was very high, for the compound of Example 3 and oral administration the maximum tolerated dose was 1500 mg/kg of bodyweight.
MIC (S. epidermidis 8700B) [µg/mL],MIC (E. faecium VanA 419ana) [µg/mL],MIC (E. coli 16702) [µg/mL],MIC (P. aeruginosa 16575) [µg/mL],MIC (S. aureus MRSA 4591) [µg/mL],MIC [1] [µg/mL],MIC [2] [µg/mL],MIC [3] [µg/mL],MIC (Streptococcus agalactiae) [µg/mL],MIC (Bacillus subtilis) [µg/mL],MIC [4] [µg/mL],MIC [5] [µg/mL],MIC [6] [µg/mL],MIC [7] [µg/mL],MIC [8] [µg/mL],SMILES,MIC (S. haemolyticus 16568) [µg/mL],skin irritation (rabbits),maximum tolerated dose (mice)
3.12,25,3.12,3.12,25,6.25,12.5,50,3.12,0.78,3.12,–,–,–,–,"CCCCCCCCCCCCCCCCOP(=O)(CCN(CCCN)CCCN)OC[C@H]1O[C@@H](n2ccc(=O)[nH]c2=O)C(O)C1O (some centres unmarked) [Example 1, Hexadecyl-uridine-5′-yl-2-N-bis (3-aminopropyl)-2-aminoethyl phosphonate]",3.12,–,–
6.25,25,6.25,3.12,12.5,3.12,6.25,50,3.12,1.56,6.25,6.25,3.12,3.12,12.5,"CCCCCCCCCCCCCCCOP(=O)(CCN(CCCN)CCCN)OC[C@H]1O[C@@H](n2ccc(=O)[nH]c2=O)C(O)C1O (some centres unmarked) [Example 2, Pentadecyl-uridine-5′-yl-2-N-bis(3-aminopropyl)-2-aminoethyl phosphonate]",3.12,–,–
12.5,100,50,25,25,3.12,12.5,50,6.25,3.12,25,50,50,50,50,"CCCCCCCCCCCCCOP(=O)(CCN(CCCN)CCCN)OC[C@H]1O[C@@H](n2ccc(=O)[nH]c2=O)C(O)C1O (some centres unmarked) [Example 4, Tridecyl-uridine-5′-yl-2-N-bis (3-aminopropyl)-2-aminoethyl phosphonate]",6.25,–,–
12.5,200,25,12.5,50,3.12,25,100,12.5,3.12,25,–,–,–,–,"CCCCCCCCCCCCOP(=O)(CCN(CCCN)CCCN)OC[C@H]1O[C@@H](n2ccc(=O)[nH]c2=O)C(O)C1O (some centres unmarked) [Example 5, Dodecyl-uridine-5′-yl-2-N-bis (3-aminopropyl)-2-aminoethyl phosphonate]",12.5,–,–
1.56,100,1.56,1.56,6.25,1.56,6.25,12.5,3.12,0.78,1.56,–,–,–,–,"CCCCCCCCCCCCCCCOP(=O)(CCN(CCN)CCN)OC[C@H]1O[C@@H](n2ccc(=O)[nH]c2=O)C(O)C1O (some centres unmarked) [Example 6, Pentadecyl-uridine-5′-yl-2-N-bis(3-aminoethyl)-2-aminoethyl phosphonate]",1.56,–,–
3.12,100,6.25,6.25,12.5,3.12,25,100,6.25,6.25,12.5,25,6.25,12.5,12.5,"CCCCCCCCCCCCCCOP(=O)(CCN(CCN)CCN)OC[C@H]1O[C@@H](n2ccc(=O)[nH]c2=O)C(O)C1O (some centres unmarked) [Example 7, Tetradecyl-uridine-5′-yl-2-N-bis(3-aminoethyl)-2-aminoethyl phosphonate]",3.12,–,–
1.56,50,0.78,1.56,3.12,0.78,3.12,25,1.56,0.39,0.78,6.25,3.12,1.56,100,CCCCCCCCCCCCCCCOP(=O)(CCN(CCCNC(=N)N)CCCNC(=N)N)OC[C@H]1O[C@@H](n2ccc(=O)[nH]c2=O)C(O)C1O (some centres unmarked) [Example 8],1.56,–,–
3.12,50,3.12,6.25,6.25,3.12,6.25,12.5,3.12,1.56,3.12,12.5,12.5,3.12,100,CCCCCCCCCCCCCCOP(=O)(CCN(CCCNC(=N)N)CCCNC(=N)N)OC[C@H]1O[C@@H](n2ccc(=O)[nH]c2=O)C(O)C1O (some centres unmarked) [Example 9],3.12,–,–
3.12,50,3.12,3.12,25,3.12,12.5,6.25,3.12,1.56,3.12,–,–,–,–,"CCCCCCCCCCCCCCOP(=O)(CCN1CCC(N)C1)OC[C@H]1O[C@@H](n2ccc(=O)[nH]c2=O)C(O)C1O (some centres unmarked) [Example 10, Tetradecyl-uridine-5′-yl-(3-aminopyrrolidin-1-N-yl) ethyl phosphonate]",6.25,–,–

SMILES,MIC (S. epidermidis 8700B) [µg/mL],MIC (E. faecium VanA 419ana) [µg/mL],MIC (E. coli 16702) [µg/mL],MIC (P. aeruginosa 16575) [µg/mL],MIC (S. aureus MRSA 4591) [µg/mL],MIC [1] [µg/mL],MIC [2] [µg/mL],MIC [3] [µg/mL],MIC (Streptococcus agalactiae) [µg/mL],MIC (Bacillus subtilis) [µg/mL],MIC [4] [µg/mL],MIC [5] [µg/mL],MIC [6] [µg/mL],MIC [7] [µg/mL],MIC [8] [µg/mL],MIC (S. haemolyticus 16568) [µg/mL],skin irritation (rabbits),maximum tolerated dose (mice)
"CCCCCCCCCCCCCCOP(=O)(CCN(CCCN)CCCN)OC[C@H]1O[C@@H](n2ccc(=O)[nH]c2=O)C(O)C1O (some centres unmarked) [Example 3, Tetradecyl-uridine-5′-yl-2-N-bis (3-aminopropyl)-2-aminoethyl phosphonate]",1.56,100,3.12,1.56,6.25,0.78,6.25,25,3.12,0.78,6.25,25,50,6.25,200,1.56,not an irritant,1500 mg/kg of bodyweight
